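These data come from cells grown in 96-well plates and exposed to compound for 48 hours at five concentrations. GI50 marks 50% less growth. TGI: total growth inhibition.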
How the values were obtained:
Experiment in all cases: NCI tumour cell line growth inhibition, 48 h
[1] = test system: CAKI-1 renal
[2] = test system: A549 NSCLC
[3] = test system: LOX IMVI melanoma
[4] = test system: IGROV1 ovarian
[5] = test system: CCRF-CEM leukemia
[6] = test system: ACHN renal
[7] = test system: NCI-H522 lung
[8] = test system: UACC-257 melanoma
[9] = test system: A498 renal
[10] = test system: HOP-92 NSCLC

C=C(C)C(=O)Nc1ccc(NC(C)C)cc1
GI50 [1]: > 100 µM
TGI [1]: > 100 µM
GI50 [2]: > 100 µM
TGI [2]: > 100 µM
GI50 [3]: > 100 µM
TGI [3]: > 100 µM
GI50 [4]: > 100 µM
TGI [4]: > 100 µM
GI50 [5]: > 100 µM
TGI [5]: > 100 µM
GI50 [6]: > 100 µM
TGI [6]: > 100 µM
GI50 [7]: > 100 µM
TGI [7]: > 100 µM
GI50 [8]: > 100 µM
TGI [8]: > 100 µM
GI50 [9]: > 100 µM
TGI [9]: > 100 µM
GI50 [10]: > 100 µM
TGI [10]: > 100 µM

Cc1ccc(Nc2n[nH]c(=S)s2)cc1C
TGI [1]: > 100 µM
TGI [2]: > 100 µM
TGI [3]: > 100 µM
TGI [4]: > 100 µM
TGI [5]: > 100 µM
TGI [6]: > 100 µM
TGI [7]: > 100 µM
TGI [8]: > 100 µM
TGI [9]: > 100 µM
TGI [10]: > 100 µM

C=C1C(=O)O[C@H]2[C@H]1CC/C(COC(=O)NCc1cn(C)c3ccccc13)=C\CC[C@@]1(C)O[C@@H]21
GI50 [1]: 1.32 µM
TGI [1]: 2.64 µM
GI50 [2]: 2.17 µM
TGI [2]: 7.14 µM
GI50 [3]: 0.594 µM
TGI [3]: 1.99 µM
GI50 [4]: 1.58 µM
TGI [4]: 3.31 µM
GI50 [5]: 0.335 µM
TGI [5]: 2.26 µM
GI50 [6]: 0.533 µM
TGI [6]: 1.81 µM
GI50 [7]: 1.02 µM
TGI [7]: 2.44 µM
GI50 [8]: 1.56 µM
TGI [8]: 4.03 µM
GI50 [9]: 3.21 µM
TGI [9]: 12.1 µM
GI50 [10]: 1.46 µM
TGI [10]: 3.05 µM

C=C1CCC2C3(C)COC(c4ccc(N(C)C)cc4)OC3CCC2(C)C1C/C=C1/C(=O)OCC1O (stereo not given)
GI50 [1]: 2.12 µM
TGI [1]: 5.66 µM
GI50 [2]: 4.73 µM
TGI [2]: 17.3 µM
GI50 [3]: 1.59 µM
TGI [3]: 3.5 µM
GI50 [4]: 2.44 µM
TGI [4]: 6.02 µM
GI50 [5]: 1.35 µM
TGI [5]: 3.99 µM
GI50 [6]: 9.16 µM
TGI [6]: 21.4 µM
GI50 [7]: 3.22 µM
TGI [7]: 14 µM
GI50 [8]: 13.1 µM
TGI [8]: 26.8 µM
GI50 [9]: 6.25 µM
TGI [9]: 17.1 µM
GI50 [10]: 6.4 µM
TGI [10]: 21.7 µM

CC(=O)CC(=O)OC1CC(C)CCC1C(C)C (stereo not given)
TGI [1]: > 100 µM
TGI [2]: > 100 µM
TGI [3]: > 100 µM
TGI [4]: > 100 µM
TGI [5]: 44 µM
TGI [6]: > 100 µM
TGI [7]: > 100 µM
TGI [8]: > 100 µM
TGI [9]: > 100 µM
TGI [10]: > 100 µM

COc1ccc(-c2cn(-c3cc(OC)c(OC)c(OC)c3)c(SCc3ccccc3)n2)cc1OC
GI50 [1]: > 100 µM
TGI [1]: > 100 µM
GI50 [2]: > 100 µM
TGI [2]: > 100 µM
GI50 [3]: > 100 µM
TGI [3]: > 100 µM
GI50 [4]: > 100 µM
TGI [4]: > 100 µM
GI50 [5]: > 100 µM
TGI [5]: > 100 µM
GI50 [6]: > 100 µM
TGI [6]: > 100 µM
GI50 [7]: > 100 µM
TGI [7]: > 100 µM
GI50 [8]: > 100 µM
TGI [8]: > 100 µM
GI50 [9]: > 100 µM
TGI [9]: > 100 µM
GI50 [10]: > 100 µM
TGI [10]: > 100 µM

COc1cc2c(cc1C)NC(=O)/C2=C/c1ccccn1
GI50 [1]: 2.72 µM
TGI [1]: 9.59 µM
GI50 [2]: 4.11 µM
TGI [2]: > 100 µM
GI50 [3]: 3.25 µM
TGI [3]: 10.4 µM
GI50 [4]: 9.6 µM
TGI [4]: > 100 µM
GI50 [5]: 0.782 µM
TGI [5]: > 100 µM
GI50 [6]: 2.48 µM
TGI [6]: 35.6 µM
GI50 [7]: 3.37 µM
TGI [7]: > 100 µM
GI50 [8]: 13.1 µM
TGI [8]: > 100 µM
GI50 [9]: 3.61 µM
TGI [9]: 8.25 µM
GI50 [10]: 2.9 µM
TGI [10]: 89.4 µM

COc1ccc(-c2c[nH]c(C(=O)O)c2-c2cc(OC)c(OC)c(OC)c2)cc1
GI50 [1]: 3.66 µM
TGI [1]: > 100 µM
GI50 [2]: 6.61 µM
TGI [2]: > 100 µM
GI50 [3]: 6.69 µM
TGI [3]: > 100 µM
GI50 [4]: 5.5 µM
TGI [4]: > 100 µM
GI50 [5]: 4.08 µM
TGI [5]: > 100 µM
GI50 [6]: 9.74 µM
TGI [6]: > 100 µM
GI50 [7]: 2.75 µM
TGI [7]: > 100 µM
GI50 [8]: > 100 µM
TGI [8]: > 100 µM
GI50 [9]: 1.56 µM
TGI [9]: 6.67 µM
GI50 [10]: 5.68 µM
TGI [10]: > 100 µM

COc1c(C)c2c(c(O)c1C/C=C(\C)CCC(=O)O)C(=O)OC2
GI50 [1]: 0.134 µM
TGI [1]: 14.7 µM
GI50 [2]: 0.239 µM
TGI [2]: > 100 µM
GI50 [3]: 0.132 µM
TGI [3]: > 100 µM
GI50 [4]: 0.253 µM
TGI [4]: > 100 µM
GI50 [5]: 0.0889 µM
TGI [5]: > 100 µM
GI50 [6]: 0.457 µM
TGI [6]: > 100 µM
GI50 [7]: 0.262 µM
TGI [7]: > 100 µM
GI50 [8]: 0.434 µM
TGI [8]: > 100 µM
GI50 [9]: 0.42 µM
TGI [9]: > 100 µM
GI50 [10]: 0.959 µM
TGI [10]: > 100 µM

C=C(C)C(=O)O[C@H]1CC(=C)[C@@H]2C[C@H](O)[C@](O)(CCl)[C@@H]2[C@H]2OC(=O)C(=C)[C@@H]21
GI50 [1]: 1.94 µM
TGI [1]: 3.45 µM
GI50 [2]: 18.4 µM
TGI [2]: 38.2 µM
GI50 [3]: 1.8 µM
TGI [3]: 3.39 µM
GI50 [4]: 2.71 µM
TGI [4]: 10.4 µM
GI50 [5]: 1.57 µM
TGI [5]: 3.71 µM
GI50 [6]: 1.82 µM
TGI [6]: 3.31 µM
GI50 [7]: 1.91 µM
TGI [7]: 4 µM
GI50 [8]: 3.65 µM
TGI [8]: 13.5 µM
GI50 [9]: 12.8 µM
TGI [9]: 26.7 µM
GI50 [10]: 2.69 µM
TGI [10]: 6.33 µM

Nc1c(C(=O)c2cccc(-c3ccncc3)c2)cnn1-c1ccc(F)cc1F
GI50 [1]: 8.1 µM
TGI [1]: > 25 µM
GI50 [2]: 6.01 µM
TGI [2]: > 25 µM
GI50 [3]: 14.3 µM
TGI [3]: > 25 µM
GI50 [4]: 9.98 µM
TGI [4]: > 25 µM
GI50 [5]: 17 µM
TGI [5]: > 25 µM
GI50 [6]: 12 µM
TGI [6]: > 25 µM
GI50 [7]: 5.73 µM
TGI [7]: > 18.7 µM
GI50 [8]: 9.47 µM
TGI [8]: > 25 µM
GI50 [9]: 4.65 µM
TGI [9]: > 25 µM
GI50 [10]: 4.71 µM
TGI [10]: > 22.9 µM

Reference: PubChem BioAssay (NCI)
